Values quoted from earlier work, collected in US20150010509A1 (priority 2012, published 2015).
“Also recorded” adds a separate entry of the source. Read-outs that look alike come from different tables or passages of the source.

Columns and labels:
[1] = tested on: human peripheral blood mononuclear cells (PBMC); details: cited from earlier work
[2] = tested on: EMT6 mouse mammary tumor cells; details: CaPterin suspension 7 mg/kg/day oral, Balb/c mice, cited from earlier work
[3] = tested on: human peripheral blood mononuclear cells (PBMC); details: at the concentrations tested; cited from earlier work
[4] = tested on: mammary gland adenocarcinomas; details: CaPterin suspension 7 mg/kg/day, oral gavage, seven days; C3H/HeN-MTV+ female mice; cited from earlier work
[5] = biological target: T1, IDO (indoleamine 2,3-dioxygenase) (Homo sapiens, UniProt P14902); details: cited from earlier work
T1 construct: freshly isolated human peripheral blood mononuclear cells (PBMC); endogenous in cells; host or cells: freshly isolated human PBMC stimulated with PHA or Con A

[6] = tested on: MDA-MB-231 human breast cancer cells; details: SCID mice, cited from earlier work
[7] = tested on: plasma cytokines, kynurenine, tryptophan; details: cited from earlier work
[8] = tested on: MDA-MB-231 human breast cancer cells; details: cited from earlier work
hepatitis B virus (HBV) = details: cited from earlier work
M. bovis BCG = details: cited from earlier work
[9] = cited from earlier work
[10] = tested on: MIP-1β, inducible nitric oxide synthase 2, IDO gene expression; details: infected human monocytes; cited from earlier work
[11] = tested on: serum kyn/trp, MCP-1, GM-CSF; details: DCP per os 14 days; regression p=0.001; cited from earlier work
[12] = Unstimulated PBMC + 200 μg/ml CaPterin
[13] = stepwise regression on CaPterin dose, p=0.047

T1 sequence (P14902 whole entry): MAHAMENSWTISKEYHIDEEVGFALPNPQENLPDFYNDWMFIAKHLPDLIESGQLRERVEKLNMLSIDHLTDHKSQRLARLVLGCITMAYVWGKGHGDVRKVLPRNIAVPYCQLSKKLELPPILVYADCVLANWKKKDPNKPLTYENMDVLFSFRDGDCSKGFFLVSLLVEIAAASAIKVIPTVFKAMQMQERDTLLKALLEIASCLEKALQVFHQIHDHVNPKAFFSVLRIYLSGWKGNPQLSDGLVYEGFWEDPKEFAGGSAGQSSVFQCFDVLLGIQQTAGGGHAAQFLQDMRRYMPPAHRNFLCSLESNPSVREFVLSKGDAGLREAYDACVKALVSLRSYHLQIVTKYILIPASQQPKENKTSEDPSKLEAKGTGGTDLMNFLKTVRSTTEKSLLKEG

Nc1nc2c3c(ncc[n+]3[Ca][O]2)n1
neopterin excretion ([1]; PBMC): suppressed
Neopterin [1, 12]: did not influence this level
animal toxicity determined by decreased body weight ([2]; 15 days): no measurable animal toxicity
effect on tumor growth ([2]; once daily 15 days): no significant effect on tumor growth
toxicity by exclusion method [3]: no toxicity
ratio of Test tumor volumes to Control tumor volumes (T/C) at Day 7 [4]: 10%
Kynurenine decrease ([5]; PBMC + Con A + CaPterin): ≦100-fold
Tryptophan ([5]; PBMC + Con A + CaPterin): 17.7 µM
Kynurenine decrease ([5]; PBMC + PHA + CaPterin): ≦100-fold
Tryptophan ([5]; PBMC + PHA + CaPterin): 17.7 µM
Kynurenine [5, 12]: did not significantly affect
Kynurenine/Tryptophan [5, 12]: lower
Tryptophan [5, 12]: did not significantly affect
IDO activity / stimulation-induced tryptophan degradation ([5]; mitogen-stimulated PBMC): suppressed stimulation-induced tryptophan degradation in a dose-dependent manner
antitumor efficacy ([6]; 13, 20 and 26 mg/kg CaPterin, oral gavage Monday through Friday for 75 days): no antitumor efficacy
toxicity ([6]; CaPterin suspension over 75 days): no measurable toxicity
plasma IFN-γ [7, 13]: decreases
plasma IL-6 [7, 13]: decreases
plasma IL-10 [7, 13]: increases
plasma kynurenine ([7]; stepwise regression on CaPterin dose, p=0.047, confounded by tumor shrinkage): increases
T/C ([8]; CaPterin 21 mg/(kg day), after 60 days of treatment, 5×10^6 cells, nude mice): 37%
T/C after 14 days ([8]; CaPterin suspension 7 mg/kg/day, oral gavage once daily 14 days, 5×10^6 cells, nude mice): 41%
treatment toxicity assessed by reductions in body weight ([8]; CaPterin suspension 7 mg/kg/day, oral gavage, 14 days, nude mice): No treatment toxicity
toxicity (appreciable weight loss ≧10%) ([8]; mega-dosed by oral gavage 100 mg/(kg day) for up to 31 days): no observed toxicity

Nc1nc([O-])c2nccnc2n1.Nc1nc([O-])c2nccnc2n1.[Ca+2] [DCP, dipterinyl calcium pentahydrate]
inhibition of liver HBV DNA (hepatitis B virus (HBV); DCP 23 mg/(kg d) per os, 14 days): 83%
liver HBV DNA measured by PCR (hepatitis B virus (HBV); DCP per os once daily 14 days, 2.3 to 23 mg/(kg d), female HBV mice): significant dose-response reduction; also recorded: decreased
viability of intracellular M. bovis BCG (M. bovis BCG; DCP treatment of infected human monocytes): significant reduction
viability of extracellular M. bovis BCG (M. bovis BCG; DCP treatment): not extracellular
reduction of OGTT/AUC (area under OGTT curve) ([9]; 7 mg/(kg d) DCP orally in 0.4% carboxymethylcellulose, 21 days, female DIO C57BL/6J mice, p<0.05): 50%
OGTT diabetic state ([9]; optimum dose 7 mg/(kg d) DCP, female DIO mice): significantly improved
C-C chemokine MIP-1β [10]: induction
IDO gene expression [10]: suppressed
inducible nitric oxide synthase 2 [10]: induction
tumor growth relation to plasma cytokines (DCP/APCP regression) ([7]; DCP treated mice, regression p=0.003): decreases with IL-12 and IL-4, and increases with IL-6
IDO activity, serum kyn/trp [11]: decreased
chemokine MCP-1 [11]: reduced
serum GM-CSF [11]: increased
T/C ([8]; DCP 23 mg/(kg d), 10×10^6 cells, 70-98 days of treatment): 25%
T/C ([8]; DCP 69 mg/(kg d), 10×10^6 cells, 70-98 days of treatment): 50%

O.O.[Ca+2].[Cl-].[Cl-] [Calcium chloride dihydrate, calcium chloride dihydrate]
T/C ([8]; calcium chloride dihydrate 4.2 mg/(kg day), 10×10^6 cells, 70-98 days of treatment): 25%

CC(C)(C)C(=O)OCOP(=O)(COCCn1cnc2c(N)ncnc21)OCOC(=O)C(C)(C)C [adefovir dipivoxil]
inhibition of liver HBV DNA (hepatitis B virus (HBV); ADV 10 mg/(kg day)): ~83%

Nc1nc2nccnc2c(=O)[nH]1 [Pterin, pterin]
antitumor activity ([8]; pterin 21 mg/(kg day), nude mice): no antitumor activity

Nc1nc2nccnc2c(=O)[nH]1.[Ca] [(1:2 mol/mol) calcium pterin, calcium pterin]
T/C ([8]; (1:2 mol/mol) calcium pterin 25 mg/(kg day), 10×10^6 cells, 70-98 days of treatment): 25%

CC(=O)O.CNC(=N)NCCC[C@H](N)C(=O)O [L-NMMA monoacetate]
effect on DCP inhibition of intracellular mycobacterial growth (M. bovis BCG; added to DCP-treated infected human monocytes): reversed the inhibitory effects of DCP on intracellular mycobacterial growth
